Earlier results on one compound are cited in patent US20110118243A1, “ANTI-INFLAMMATORY DRUG DELIVERY SYSTEM” (priority 2008, published 2011).

The structures appear in SMILES notation.

The conditions of this data set: in horses.

As for `CCCCC1C(=O)N(c2ccccc2)N(c2ccccc2)C1=O` [phenylbutazone, 4-butyl-diphenyl-3,5-pyrazoidinedione], the Plasma half-life is 5 to 6 h.
